Experimental data: PubChem BioAssay (NCI)
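Briefly, cells in 96-well plates were exposed to five compound concentrations for 48 h, and endpoints were estimated by linear interpolation. TGI: total growth inhibition.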

Assays:
Experiment in all cases: NCI-60 cell line screen, 48 h
TK-10 renal = tested on: TK-10 renal
RPMI-8226 leukemia = tested on: RPMI-8226 leukemia
SNB-19 CNS = tested on: SNB-19 CNS
MALME-3M melanoma = tested on: MALME-3M melanoma
HOP-62 NSCLC = tested on: HOP-62 NSCLC
786-0 renal = tested on: 786-0 renal
HT29 colon = tested on: HT29 colon
RXF-631 renal = tested on: RXF-631 renal
HOP-18 NSCLC = tested on: HOP-18 NSCLC
OVCAR-4 ovarian = tested on: OVCAR-4 ovarian

SMILES: CCCCOC(=O)NC(=O)c1cn(CCSCCOC(=O)NCCCCCCNC(=O)OCCSCCn2cc(C(=O)NC(=O)OCCCC)c(=O)[nH]c2=O)c(=O)[nH]c1=O
- TGI (TK-10 renal): 92.4 µM
- TGI (RPMI-8226 leukemia): > 100 µM
- TGI (SNB-19 CNS): > 100 µM
- TGI (MALME-3M melanoma): 76.6 µM
- TGI (HOP-62 NSCLC): > 100 µM
- TGI (786-0 renal): > 100 µM
- TGI (HT29 colon): > 100 µM
- TGI (RXF-631 renal): > 100 µM
- TGI (HOP-18 NSCLC): > 100 µM
- TGI (OVCAR-4 ovarian): > 100 µM

SMILES: C/C(=N\N=C(/[Se])N1CC2CCC(CC2)C1)c1ccccn1
- TGI (TK-10 renal): 3.7 µM
- TGI (RPMI-8226 leukemia): 0.22 µM
- TGI (SNB-19 CNS): 4.06 µM
- TGI (MALME-3M melanoma): 0.567 µM
- TGI (HOP-62 NSCLC): 1.92 µM
- TGI (786-0 renal): 2.52 µM
- TGI (HT29 colon): 2.6 µM
- TGI (RXF-631 renal): 3.88 µM
- TGI (HOP-18 NSCLC): 1.98 µM
- TGI (OVCAR-4 ovarian): 2.56 µM

SMILES: O=C(C(=O)N1CC2C=CC1CC2)c1c[nH]c2ccccc12 (configuration not stated)
- TGI (TK-10 renal): > 100 µM
- TGI (RPMI-8226 leukemia): > 100 µM
- TGI (SNB-19 CNS): > 100 µM
- TGI (MALME-3M melanoma): > 100 µM
- TGI (HOP-62 NSCLC): > 100 µM
- TGI (786-0 renal): > 100 µM
- TGI (HT29 colon): > 100 µM
- TGI (RXF-631 renal): > 100 µM
- TGI (HOP-18 NSCLC): > 100 µM
- TGI (OVCAR-4 ovarian): > 100 µM

SMILES: COc1cc(/C=C2\CCC(CN(C)C)C2=O)ccc1OC(=O)c1ccccc1 (configuration not stated)
- TGI (TK-10 renal): 23.5 µM
- TGI (RPMI-8226 leukemia): 9.3 µM
- TGI (SNB-19 CNS): 25.5 µM
- TGI (MALME-3M melanoma): 29.5 µM
- TGI (HOP-62 NSCLC): 23.5 µM
- TGI (786-0 renal): 12.4 µM
- TGI (HT29 colon): 26.6 µM
- TGI (RXF-631 renal): 23.6 µM
- TGI (HOP-18 NSCLC): 30.9 µM
- TGI (OVCAR-4 ovarian): 25.5 µM

SMILES: O=C1c2c(n(Cc3ccccc3)c(=O)n2Cc2ccccc2)C(=O)N1Cc1ccccc1
- TGI (TK-10 renal): > 100 µM
- TGI (RPMI-8226 leukemia): > 100 µM
- TGI (SNB-19 CNS): > 100 µM
- TGI (MALME-3M melanoma): > 100 µM
- TGI (HOP-62 NSCLC): > 100 µM
- TGI (786-0 renal): > 100 µM
- TGI (HT29 colon): > 100 µM
- TGI (RXF-631 renal): > 100 µM
- TGI (HOP-18 NSCLC): > 100 µM
- TGI (OVCAR-4 ovarian): > 100 µM

SMILES: O=C1C(=O)N(c2ccc(Cl)cc2Cl)C(=O)C(=O)C1c1nc2ccccc2o1
- TGI (TK-10 renal): > 100 µM
- TGI (RPMI-8226 leukemia): > 100 µM
- TGI (SNB-19 CNS): > 100 µM
- TGI (MALME-3M melanoma): > 100 µM
- TGI (HOP-62 NSCLC): > 100 µM
- TGI (786-0 renal): > 100 µM
- TGI (HT29 colon): > 100 µM
- TGI (RXF-631 renal): > 100 µM
- TGI (HOP-18 NSCLC): > 100 µM
- TGI (OVCAR-4 ovarian): > 100 µM

SMILES: O=C1CN(C(=O)c2ccccc2)Cc2[nH]c3ccccc3c21
- TGI (TK-10 renal): > 100 µM
- TGI (RPMI-8226 leukemia): > 100 µM
- TGI (SNB-19 CNS): > 100 µM
- TGI (MALME-3M melanoma): > 100 µM
- TGI (HOP-62 NSCLC): > 100 µM
- TGI (786-0 renal): > 100 µM
- TGI (HT29 colon): > 100 µM
- TGI (RXF-631 renal): > 100 µM
- TGI (HOP-18 NSCLC): > 100 µM
- TGI (OVCAR-4 ovarian): > 100 µM

SMILES: CCOC(=O)C1SC(=Nc2ccc(Cl)c(Cl)c2)N=C1C (configuration not stated)
- TGI (TK-10 renal): > 100 µM
- TGI (RPMI-8226 leukemia): 56.9 µM
- TGI (SNB-19 CNS): > 100 µM
- TGI (MALME-3M melanoma): > 100 µM
- TGI (HOP-62 NSCLC): > 100 µM
- TGI (786-0 renal): 31.3 µM
- TGI (HT29 colon): 66.8 µM
- TGI (RXF-631 renal): > 100 µM
- TGI (HOP-18 NSCLC): > 100 µM
- TGI (OVCAR-4 ovarian): 62 µM

SMILES: CN1CC(C(=O)C2C(=O)c3ccccc3C2=O)C(=O)C(=O)C(C(=O)C2C(=O)c3ccccc3C2=O)C1 (configuration not stated)
- TGI (TK-10 renal): > 100 µM
- TGI (SNB-19 CNS): > 100 µM
- TGI (MALME-3M melanoma): > 100 µM
- TGI (HOP-62 NSCLC): > 10 µM
- TGI (786-0 renal): > 100 µM
- TGI (HT29 colon): > 100 µM
- TGI (RXF-631 renal): > 100 µM

SMILES: CC(C)(C)C(=O)ON1N=NC2C3CC(OCc4ccccc4)(OCc4ccccc4)C(O3)C21 (configuration not stated)
- TGI (RPMI-8226 leukemia): 49.4 µM
- TGI (MALME-3M melanoma): 31.2 µM
- TGI (HOP-62 NSCLC): > 100 µM
- TGI (786-0 renal): 36.4 µM
- TGI (HT29 colon): 47.9 µM
- TGI (RXF-631 renal): 82.1 µM
- TGI (HOP-18 NSCLC): 94.2 µM
- TGI (OVCAR-4 ovarian): 82.4 µM

SMILES: Cc1cc(NS(=O)(=O)c2ccc(NC(=O)c3cccc4c(Nc5ccc(S(=O)(=O)N=C(N)N)cc5)c5ccccc5nc34)cc2)no1
- TGI (TK-10 renal): > 100 µM
- TGI (RPMI-8226 leukemia): > 100 µM
- TGI (SNB-19 CNS): > 100 µM
- TGI (MALME-3M melanoma): > 100 µM
- TGI (HOP-62 NSCLC): > 100 µM
- TGI (786-0 renal): > 100 µM
- TGI (HT29 colon): > 100 µM
- TGI (RXF-631 renal): > 100 µM
- TGI (OVCAR-4 ovarian): > 100 µM

SMILES: O=C(OCC1CO1)c1cccs1 (configuration not stated)
- TGI (TK-10 renal): > 100 µM
- TGI (RPMI-8226 leukemia): > 100 µM
- TGI (SNB-19 CNS): > 100 µM
- TGI (MALME-3M melanoma): > 100 µM
- TGI (HOP-62 NSCLC): > 100 µM
- TGI (786-0 renal): > 100 µM
- TGI (HT29 colon): > 100 µM
- TGI (RXF-631 renal): > 100 µM
- TGI (OVCAR-4 ovarian): > 100 µM

SMILES: COc1cc2c(cc1O)CC13CCC(=O)N1CCc1cc(OC)c(O)c-2c13 (configuration not stated)
- TGI (TK-10 renal): > 68.1 µM
- TGI (RPMI-8226 leukemia): > 68.1 µM
- TGI (SNB-19 CNS): > 68.1 µM
- TGI (MALME-3M melanoma): > 68.1 µM
- TGI (HOP-62 NSCLC): > 68.1 µM
- TGI (786-0 renal): > 68.1 µM
- TGI (HT29 colon): > 68.1 µM
- TGI (RXF-631 renal): > 68.1 µM
- TGI (HOP-18 NSCLC): > 68.1 µM
- TGI (OVCAR-4 ovarian): > 68.1 µM

SMILES: CC(=O)OC1(C)C(=O)OC1(C)C(C)=O (configuration not stated)
- TGI (TK-10 renal): > 100 µM
- TGI (RPMI-8226 leukemia): > 100 µM
- TGI (SNB-19 CNS): > 100 µM
- TGI (MALME-3M melanoma): > 100 µM
- TGI (786-0 renal): > 100 µM
- TGI (HT29 colon): > 100 µM
- TGI (RXF-631 renal): > 100 µM
- TGI (HOP-18 NSCLC): > 100 µM
- TGI (OVCAR-4 ovarian): > 100 µM
